Like-named read-outs stand apart in the source and are kept apart here.
Tested on: cancer cell lines from the cancer cell line encyclopedia (CCLE)
Experiment: Cell line profiling (CLiP) proliferation experiment
Assay type: cell-based
Settings: for IC50: read-out: Crossing Point; for EC50: read-out: Inflection Point
Procedure: Compound profiling experiment and data analysis was performed as previously described. Data was imported and plotted using the Tibco Spotfire DXP application. Lines were categorized as sensitive, intermediate and refractory as follows: Amax<-40 & Inflection Point <2 ~ Sensitive, Amax>-20 & Inflection Point >10 ~ Refractory, all else were called Intermediate. Cancer Cell line HG-U133 Plus 2 data was processed and normalized as described. […] Five sets of refractory cell lines were generated from the pool of refractory cell lines trying to match the lineage composition of the set of sensitive cell lines. The limma package was used as previously described to perform the statistical comparison.

[1] = HT115, cell line HT115, large_intestine
[2] = Homo sapiens, 8-MG-BA, cell line 8-MG-BA, central_nervous_system, astrocytoma_Grade_IV
[3] = Homo sapiens, 769-P, cell line 769-P, kidney, clear_cell_renal_cell_carcinoma
[4] = Homo sapiens, A101D, A101D cells
[5] = Homo sapiens, A101D, cell line A101D, skin, NS
[6] = Homo sapiens, A204, cell line A-204, soft_tissue, NS
[7] = Homo sapiens, A2780, cell line A2780, ovary, adenocarcinoma
[8] = Homo sapiens, ABC-1, ABC-1 cells
[9] = Homo sapiens, ABC-1, cell line ABC-1, lung, non_small_cell_carcinoma
[10] = Homo sapiens, AMO1, cell line AMO-1, haematopoietic_and_lymphoid_tissue, plasma_cell_myeloma
[11] = Homo sapiens, BFTC-909, cell line BFTC-909, kidney, NS
[12] = Homo sapiens, BL-41, cell line BL-41, haematopoietic_and_lymphoid_tissue, Burkitt_lymphoma
[13] = Homo sapiens, BV-173, cell line BV-173, haematopoietic_and_lymphoid_tissue, blast_phase_chronic_myeloid_leukaemia
[14] = Homo sapiens, CAKI-1, cell line Caki-1, kidney, clear_cell_renal_cell_carcinoma
[15] = Homo sapiens, CAL-54, CAL-54, kidney, renal_cell_carcinoma
[16] = Homo sapiens, CAL-54, CAL-54 cells
[17] = Homo sapiens, CAL-85-1, CAL-85-1, breast, NS
[18] = Homo sapiens, CAL-85-1, CAL-85-1 cells
[19] = Homo sapiens, CAL-120, cell line CAL-120, breast, NS
[20] = Homo sapiens, CAPAN-1, Capan-1, pancreas, ductal_carcinoma
[21] = Homo sapiens, CFPAC-1, CFPAC-1, pancreas, ductal_carcinoma

In the case of CC(C)[C@@]12C[C@@H](O)[C@@](C)(O1)[C@@H]1CC[C@@H](C)[C@H]1[C@@H]2OC(=O)/C=C/c1ccccc1 [Englerin B], the IC50 (HEC-50B, cell line HEC-50B) is reported as over 30 µM, the IC50 (HEC-251, cell line HEC-251, endometrium) is reported as over 30 µM and the IC50 (HEC-251, cell line HEC-251) is reported as over 30 µM. The IC50 (HEY A8, cell line Hey-A8, ovary) was over 30 µM, the IC50 (HEY A8, cell line Hey-A8) was over 30 µM and the IC50 [1] was 19.2 µM. It also gave an EC50 [1] of 12.3 µM, an IC50 [2] of 26.5 µM and an EC50 [2] of 15.8 µM. It also gave an IC50 (Homo sapiens, 22Rv1, cell line 22Rv1, prostate, NS) of 27.2 µM, an IC50 (Homo sapiens, 769-P, 769-P (kidney)) of over 30 µM and an IC50 [3] of over 30 µM. It also gave an EC50 [3] of 20.5 µM, an IC50 (Homo sapiens, 786-0, cell line 786-O, kidney, clear_cell_renal_cell_carcinoma) of over 30 µM and an IC50 (Homo sapiens, 786-0, cell line 786-O) of over 30 µM. For the same compound, the IC50 (Homo sapiens, 1321-N1, cell line 1321N1 (central_nervous_system, astrocytoma)) was over 30 µM, the IC50 (Homo sapiens, 1321-N1, cell line 1321N1, central_nervous_system, astrocytoma) was over 30 µM and the IC50 (Homo sapiens, 8305C, 8305C (thyroid)) was over 30 µM. It also gave an IC50 (Homo sapiens, 8305C, cell line 8305C, thyroid, anaplastic_carcinoma) of over 30 µM, an IC50 [4] of over 30 µM and an EC50 [4] of 19.2 µM. The IC50 [5] was over 30 µM, the EC50 [5] was 19.2 µM and the IC50 (Homo sapiens, A 172, cell line A172, central_nervous_system, astrocytoma_Grade_IV) was over 30 µM. It also gave an IC50 (Homo sapiens, A 172, cell line A172) of over 30 µM, an IC50 (Homo sapiens, A204, cell line A-204) of over 30 µM and an IC50 [6] of over 30 µM. The EC50 [6] was 17.4 µM, the IC50 (Homo sapiens, A253, cell line A-253, salivary_gland, mucoepidermoid_carcinoma) was 14.7 µM and the IC50 (Homo sapiens, A498, cell line A-498, kidney, renal_cell_carcinoma) was 12.5 µM. For the same compound, the IC50 (Homo sapiens, A549, cell line A549, lung, adenocarcinoma) was 23.2 µM, the IC50 (Homo sapiens, A673, A-673 cells) was over 30 µM and the IC50 (Homo sapiens, A673, cell line A-673, bone, NS) was over 30 µM. It also gave an IC50 (Homo sapiens, A2058, cell line A2058, skin, NS) of 18.5 µM, an EC50 (Homo sapiens, A2780, A2780 cells) of 12.1 µM and an IC50 [7] of 14.9 µM. For the same compound, the EC50 [7] was 12.1 µM, the IC50 (Homo sapiens, A-375, A-375 cells) was over 30 µM and the IC50 (Homo sapiens, A-375, cell line A-375, skin, NS) was over 30 µM. The IC50 [8] was over 30 µM, the EC50 [8] was 23.7 µM and the IC50 [9] was over 30 µM. The EC50 [9] was 23.7 µM, the IC50 (Homo sapiens, ACHN, ACHN cells) was over 30 µM and the IC50 (Homo sapiens, ACHN, cell line ACHN, kidney, renal_cell_carcinoma) was over 30 µM. For the same compound, the EC50 (Homo sapiens, AMO1, AMO-1 cells) was 12.2 µM, the IC50 [10] was 13.2 µM and the EC50 [10] was 12.2 µM. For the same compound, the IC50 (Homo sapiens, AN3-CA, cell line AN3 CA, endometrium, adenocarcinoma) was 21.1 µM, the IC50 (Homo sapiens, AN3-CA, cell line AN3 CA) was 21.1 µM and the IC50 (Homo sapiens, AU565, cell line AU565, breast, NS) was 20.5 µM. It also gave an IC50 [11] of over 30 µM, an EC50 [11] of 0.1 µM and an IC50 (Homo sapiens, BFTC-909, cell line BFTC-909) of over 30 µM. It also gave an EC50 (Homo sapiens, BL-41, BL-41 cells) of 16.6 µM, an IC50 [12] of 17.2 µM and an EC50 [12] of 16.6 µM. It also gave an IC50 (Homo sapiens, BT-20, BT-20 cells) of over 30 µM, an IC50 (Homo sapiens, BT-20, cell line BT-20, breast, ductal_carcinoma) of over 30 µM and an IC50 (Homo sapiens, BT-549, cell line BT-549, breast, ductal_carcinoma) of 19.5 µM. The EC50 (Homo sapiens, BV-173, BV-173 cells) was 12.5 µM, the IC50 [13] was 12.8 µM and the EC50 [13] was 12.5 µM. The IC50 (Homo sapiens, BXPC-3, cell line BxPC-3, pancreas, ductal_carcinoma) was 26.1 µM, the IC50 (Homo sapiens, C32, C32 cells) was over 30 µM and the IC50 (Homo sapiens, CAKI-1, Caki-1 (kidney)) was over 30 µM. For the same compound, the IC50 [14] was over 30 µM, the EC50 [14] was 13.3 µM and the IC50 (Homo sapiens, CAKI-2, Caki-2 (kidney)) was over 30 µM. It also gave an IC50 (Homo sapiens, CAKI-2, cell line Caki-2, kidney, clear_cell_renal_cell_carcinoma) of over 30 µM, an IC50 (Homo sapiens, CAL-51, CAL-51 cells) of over 30 µM and an IC50 (Homo sapiens, CAL-51, cell line CAL-51, breast, NS) of over 30 µM. The IC50 [15] was over 30 µM, the EC50 [15] was 15.7 µM and the IC50 [16] was over 30 µM. For the same compound, the EC50 [16] was 15.7 µM, the IC50 [17] was over 30 µM and the EC50 [17] was 27.8 µM. The IC50 [18] was over 30 µM, the EC50 [18] was 27.8 µM and the EC50 (Homo sapiens, CAL-120, CAL-120 cells) was 11.6 µM. The IC50 [19] was 22.3 µM, the EC50 [19] was 11.6 µM and the IC50 (Homo sapiens, CAMA-1, CAMA-1 (breast)) was over 30 µM. It also gave an IC50 (Homo sapiens, CAMA-1, CAMA-1, breast, NS) of over 30 µM, an IC50 (Homo sapiens, CAPAN-1, Capan-1 (pancreas)) of over 30 µM and an IC50 [20] of over 30 µM. The EC50 [20] was 3.35 µM, the IC50 (Homo sapiens, CCRF-CEM, CCRF-CEM cells) was over 30 µM and the IC50 (Homo sapiens, CCRF-CEM, haematopoietic_and_lymphoid_tissue, acute_lymphoblastic_T_cell_leukaemia) was over 30 µM. It also gave an IC50 [21] of 29.7 µM and an EC50 [21] of 12.7 µM.

From article PMC4476799, “Englerin A Agonizes the TRPC4/C5 Cation Channels to Inhibit Tumor Cell Line Proliferation” (PLoS ONE, 2015)
